Structures are written as SMILES.

Here are results for one molecule from patent publication US10882860B2, “Treatment of osteoarthritis” (Samumed, LLC, priority 2015, dated 2021).

On the set-up of the data set: species or system beagle dogs. Particulars: dog, in vivo. How it is done:
The local toxicology of Form 1 of the compound of Formula (I) in dogs was studied. The compound of Formula (I) (Form 1) was administered via single or multiple (9 times) intra-articular (IA) injections as a suspension composition in beagle dogs to evaluate local toxicity.
After IA injection, the right stifle joint was histologically evaluated for inflammation, cartilage health, bone density, etc. Toxicology was evaluated immediately after a single or multiple (3 or 9 once-monthly) IA injections.
The NOAEL for the compound of Formula (I) in this study was considered to be 116 μg/knee.

Take `CC(C)CC(=O)Nc1cncc(-c2ccc3[nH]nc(-c4nc5c(-c6cccc(F)c6)cncc5[nH]4)c3c2)c1` [compound of Formula (I)]: the no-observed-adverse-effect level (NOAEL) came to 116 μg/knee.

As usually defined, the NOAEL is the highest dose or exposure tested at which no adverse effect was seen.
